assay: HIV fusion inhibitor analogs, peptide binding, SAR follow-up, biochemical, set 2, fluorescence quenching (AID 493095); conditions: cell-free peptide binding, 30 min; cut-off not given, nearly all actives have IC50 up to about 63 µM

IC50, active:
CS(=O)(=O)C1=NSC2=NC(=O)/C(=C\c3cccn3-c3ccc(Cl)c(Cl)c3)C(=N)N21 6.55 µM, CCOc1ccc(-n2cccc2/C=C2/C(=N)N3C(=NC2=O)SN=C3S(C)(=O)=O)cc1 40.3 µM, COc1cccc(-n2cccc2/C=C2/C(=N)N3C(=NC2=O)SN=C3S(C)(=O)=O)c1 6.31 µM, COc1cccc(C2C(C(=O)Nc3ccccc3)=C(C)N=c3sc(=Cc4ccc(OCC(=O)O)cc4)c(=O)n32)c1 (centres undefined) 8.05 µM, CS(=O)(=O)C1=NSC2=NC(=O)/C(=C\c3cccn3-c3ccc(Br)cc3)C(=N)N21 5.36 µM, CCOC(=O)C1=C(C)N=c2sc(=Cc3ccc(OCC(=O)O)cc3)c(=O)n2C1c1cc(OC)c(OC)c(OC)c1 (centres undefined) 7.82 µM, O=C(O)c1ccc(C[n+]2c(-c3ccc([N+](=O)[O-])cc3)csc2Nc2ccccc2)cc1 15.4 µM, CCOC(=O)C1=C(C)N=c2s/c(=C\c3ccc(OCC(=O)O)cc3)c(=O)n2C1c1ccc(Cl)cc1 (centres undefined) 8.89 µM, CS(=O)(=O)C1=NSC2=NC(=O)/C(=C\c3cccn3-c3cccc(C(F)(F)F)c3)C(=N)N21 5.8 µM, Cc1c2c(=O)n(-c3nc4ccccc4s3)nc-2cc(O)n1Cc1ccccc1Cl 7.69 µM, COc1ccccc1NS(=O)(=O)c1ccc2c(c1)C1C=CCC1C(c1ccc(C(=O)O)cc1)N2 (centres undefined) 69.1 µM, O=C(O)c1ccc([C@@H]2Nc3ccc(S(=O)(=O)Nc4cccc5ccccc45)cc3[C@@H]3C=CC[C@@H]32)cc1 17.3 µM, COc1ccc(-c2ccc(/C=C3\SC(=S)N(CCCC(=O)O)C3=O)o2)cc1 12.9 µM, CCOC(=O)C1=C(C)N=c2sc(=Cc3ccc(OCC(=O)O)cc3)c(=O)n2C1c1ccc(OC)cc1OC (centres undefined) 20.2 µM, O=C(O)CCC(C(=O)O)N1C(=O)/C(=C\c2ccco2)SC1=S (centres undefined) 1.38 µM, COc1ccc(-n2cccc2/C=C2/C(=N)N3C(=NC2=O)SN=C3S(C)(=O)=O)cc1Cl 12.2 µM, CS(=O)(=O)C1=NSC2=NC(=O)/C(=C\c3cccn3-c3cc(Cl)cc(Cl)c3)C(=N)N21 30 µM, CCOC(=O)C1=C(C)N=c2s/c(=C\c3ccc(OCC(=O)O)cc3)c(=O)n2C1c1ccc(OC)c(OCC)c1 (centres undefined) 22.9 µM, CS(=O)(=O)C1=NSC2=NC(=O)/C(=C\c3cccn3-c3cccc(Cl)c3)C(=N)N21 9.16 µM, CS(=O)(=O)C1=NSC2=NC(=O)/C(=C\c3cccn3-c3ccc(Cl)cc3)C(=N)N21 25.2 µM, Cc1ccc(-n2cccc2/C=C2/C(=N)N3C(=NC2=O)SN=C3S(C)(=O)=O)cc1C 5.98 µM, O=C(O)CCCN1C(=O)/C(=C\c2ccc(-c3cccc(Cl)c3)o2)SC1=S 4.27 µM, COc1ccc(CCn2c(O)cc3nn(-c4nc5ccccc5s4)c(=O)c-3c2C)cc1 5.6 µM, CCOC(=O)C1=C(C)N=c2sc(=Cc3ccc(OCC(=O)O)cc3)c(=O)n2C1c1ccccc1 (centres undefined) 19.6 µM, CS(=O)(=O)C1=NSC2=NC(=O)/C(=C\c3cccn3-c3ccc(F)cc3)C(=N)N21 9.41 µM, CS(=O)(=O)C1=NSC2=NC(=O)/C(=C\c3cccn3-c3cccc(F)c3)C(=N)N21 3.71 µM, O=C(O)CCCN1C(=O)/C(=C/c2ccc(-c3cccc(C(F)(F)F)c3)o2)SC1=S 5.43 µM, O=C(O)CCCN1C(=O)/C(=C\c2ccc(-c3ccc(F)cc3)o2)SC1=S 11.1 µM, O=C(O)CCCN1C(=O)/C(=C/c2cc3ccccc3o2)SC1=S 10.8 µM, O=C(O)CCCN1C(=O)/C(=C\c2ccc(-c3ccc(Br)cc3)o2)SC1=S 3.26 µM, O=C(O)CCCN1C(=O)/C(=C\c2ccc(-c3ccc(Cl)cc3)o2)SC1=S 44.8 µM, CC1=C(C(=O)OC(C)C)C(c2ccc(Cl)cc2)n2c(s/c(=C\c3ccc(OCC(=O)O)cc3)c2=O)=N1 (centres undefined) 19.1 µM, CCOC(=O)C1=C(c2ccccc2)N=c2s/c(=C\c3ccc(OCC(=O)O)cc3)c(=O)n2C1c1cccc(OC)c1 (centres undefined) 7.41 µM, CCOC(=O)C1=C(C)N=c2sc(=Cc3ccc(OCC(=O)O)cc3)c(=O)n2C1c1ccc(F)cc1 (centres undefined) 6.28 µM, O=C(O)c1ccc(C2Nc3ccc(S(=O)(=O)Nc4cc(Cl)ccc4Cl)cc3C3C=CCC32)cc1 (centres undefined) 48.2 µM, Cc1ccc(-n2cccc2/C=C2/C(=N)N3C(=NC2=O)SN=C3S(C)(=O)=O)cc1 6.24 µM, CCc1ccc(-n2cccc2/C=C2/C(=N)N3C(=NC2=O)SN=C3S(C)(=O)=O)cc1 53 µM, CCOC(=O)C1=C(C)N=c2sc(=Cc3ccc(OCC(=O)O)cc3)c(=O)n2C1c1ccccc1OC (centres undefined) 31.6 µM, O=C(O)CCCN1C(=O)/C(=C/c2ccc(-c3ccc(Cl)c(Cl)c3)o2)SC1=S 28.9 µM

Reference: PubChem BioAssay AID493095 (Sanford-Burnham Center for Chemical Genomics, 2011)
